These are literature values, as cited in patent publication US20230167121A1, “SUBSTITUTED {1,2,4,} TRIAZOLO{1,5-A} PYRIMIDINE COMPOUNDS AND USE IN STABILIZING MICROTUBULES” (THE TRUSTEES OF THE UNIVERSITY OF PENNSYLVANIA, priority 2020, published 2023).

The test system of the data set is MTs. To be noted: cited from earlier work.

As for `CO[C@H]1C[C@H]2CC[C@@H](C1)N2c1c(-c2c(F)cc(F)cc2F)c(Cl)nc2ncnn12` [Compound 2], the “binding to MTs / unpolymerized tubulin heterodimers” value is “binds exclusively to MTs and not to unpolymerized tubulin heterodimers”.
